According to patent US8772303B2, “Pharmaceutical formulation” (Glaxo Group Limited, priority 2004, dated 2014):

What was measured:
[1] = Measurement of the substituted uracil formula (II) in simulated gastric fluid (hydrolysis of active); assay type: physicochemical; settings: for Levels of Formula (II) in simulated gastric fluid: 60 mg active in 250 mL SGF, 37° C., 50 rpm
Source text: Compounds of Formula (I) hydrolyse, particularly under conditions where pH corresponds to that typically prevailing in the human stomach, to form a thiol and a uracil in a 1:1 stoichiometric ratio. The thiol has a smell characteristic of compounds of its class, the intensity of the smell increasing with the concentration of the thiol. Thus the concentration of the uracil is a surrogate marker for the intensity of the smell.
To simulate in vitro the effect of enteric-coating on the propensity of 1-(N-(2-(Diethylamino)ethyl)-N-(4-(4-trifluoromethylphenyl)benzyl)aminocarbonylmethyl)-2-(4-fluorobenzyl)thio-5,6-trimethylenepyrimidin-4-one as the free base (called “active” in this example) to give rise to abnormal smells in vivo, a two-armed study was performed. In both arms, 60 mg of active was immersed in 250 mL simulated gastric fluid held at 37° C. and stirred at 50 rpm in a USP2 dissolution apparatus. In one arm, the active was present as an enteric-coated tablet. In the other arm, active was present as the unformulated drug substance, which is chemically equivalent to a tablet lacking an enteric coat.
The uracil produced by the active is N-[2-(diethylamino)ethyl]-2-(2,4-dioxo-2,3,4,5,6,7-hexahydro-1H-cyclopenta[d]pyrimidin-1-yl)-N-{[4′-(trifluoromethyl)-4-biphenylyl]methyl}acetamide, as shown in Formula (II): […]
In both arms, the level of formula (II) in solution was monitored over time, by withdrawing a small sample of the fluid and comparing its LC-MS response to that of a matrix-matched external standard (i.e. synthetic formula (II)).

[2] = Measurement of the substituted uracil formula (II) in simulated intestinal fluid (hydrolysis of active); assay type: physicochemical; settings: for Levels of formula (II) in simulated intestinal fluid: 80 mg active in 250 mL fasted-state SIF, 37° C., 50 rpm
Description: To simulate in vitro the propensity of active tablets to give rise to abnormal smells in the human intestine, active equivalent to 80 mg was immersed in 250 mL simulated intestinal fluid (corresponding to the fasted state in humans) held at 37° C. and stirred at 50 rpm in a USP2 dissolution apparatus. This is chemically equivalent to a tablet whose enteric coat has been destroyed and whose core has subsequently disintegrated.
The level of formula (II) in solution was monitored over time, by withdrawing a small sample of the fluid and comparing its LC-MS response to that of a matrix-matched external standard (i.e. synthetic formula (II)).

Levels of Formula (II) in simulated gastric fluid ([1]; 0 min, QL 1.71 ng/mL): 6270 ng/mL | Levels of Formula (II) in simulated gastric fluid ([1]; 5 min, QL 1.71 ng/mL): 6570 ng/mL | Levels of Formula (II) in simulated gastric fluid ([1]; 10 min, QL 1.71 ng/mL): 7180 ng/mL | Levels of Formula (II) in simulated gastric fluid ([1]; 15 min, QL 1.71 ng/mL): 7970 ng/mL | Levels of Formula (II) in simulated gastric fluid ([1]; 30 min, QL 1.71 ng/mL): 9270 ng/mL | Levels of Formula (II) in simulated gastric fluid ([1]; 45 min, QL 1.71 ng/mL): 11450 ng/mL | Levels of Formula (II) in simulated gastric fluid ([1]; 60 min): 13110 ng/mL | Levels of Formula (II) in simulated gastric fluid ([1]; 120 min): 18940 ng/mL | Levels of Formula (II) in simulated gastric fluid ([1]; 240 min): 25250 ng/mL | Levels of Formula (II) in simulated gastric fluid ([1]; 480 min): 62910 ng/mL | Levels of Formula (II) in simulated gastric fluid ([1]; 1440 min): 135600 ng/mL | Reduction by the enteric coat of the level of formula (II) formed by active ([1]; simulated gastric fluid, enteric coated tablet versus unformulated drug): 4 orders of magnitude | Levels of formula (II) in simulated intestinal fluid ([2]; 480 min): 2.99 ng/mL | Levels of formula (II) in simulated intestinal fluid ([2]; 1440 min): 8.58 ng/mL | Propensity to form formula (II) in simulated intestinal fluid ([2]; in contrast to behaviour in simulated gastric fluid): low propensity
SMILES: CCN(CC)CCN(Cc1ccc(-c2ccc(C(F)(F)F)cc2)cc1)C(=O)Cn1c(SCc2ccc(F)cc2)nc(=O)c2c1CCC2 [Unformulated drug, 1-(N-(2-(Diethylamino)ethyl)-N-(4-(4-trifluoromethylphenyl)benzyl)aminocarbonylmethyl)-2-(4-fluorobenzyl)thio-5,6-trimethylenepyrimidin-4-one]
